Reference: patent US10870647B2, “Imidazopyridine derivative, method for preparing same, and pharmaceutical composition containing same as active ingredient for preventing or treating cancer” (DAEGU-GYEONGBUK MEDICAL INNOVATION FOUNDATION, priority 2016, dated 2020)

Columns and labels:
Assay in all cases: Kinase selectivity, scanMAX Kinase assay panel (DiscoverX), % control at 1 uM
Assay type in all cases: binding
[1] = molecular target: T1, scanMAX Kinase assay panel (Homo sapiens, UniProt P08631); details: HCK; 1 uM; read-out: Percent Control (%)
T1 construct: purchased DiscoverX
T1 sequence (P08631 whole entry): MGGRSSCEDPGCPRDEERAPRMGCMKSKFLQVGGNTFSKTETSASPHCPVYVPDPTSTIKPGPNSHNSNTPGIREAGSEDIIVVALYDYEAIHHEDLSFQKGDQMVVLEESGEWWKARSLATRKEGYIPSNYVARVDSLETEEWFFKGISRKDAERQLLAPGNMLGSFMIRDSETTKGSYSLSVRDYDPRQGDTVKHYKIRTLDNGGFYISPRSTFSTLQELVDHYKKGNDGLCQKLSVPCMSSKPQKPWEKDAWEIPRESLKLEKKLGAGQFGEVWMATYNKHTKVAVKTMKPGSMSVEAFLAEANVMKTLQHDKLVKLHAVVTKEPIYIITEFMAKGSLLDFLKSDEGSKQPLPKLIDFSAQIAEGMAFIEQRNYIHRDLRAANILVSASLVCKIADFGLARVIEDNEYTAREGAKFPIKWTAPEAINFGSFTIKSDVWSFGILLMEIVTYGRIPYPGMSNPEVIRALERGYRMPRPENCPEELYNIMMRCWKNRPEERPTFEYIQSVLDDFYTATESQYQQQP
How it was run: (§1)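 1 uM cpd (DMSO) per kinase; % ctrl = [cpd − pos ctrl]/[neg ctrl − pos ctrl] × 100; hit if <35.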

[2] = molecular target: T2, scanMAX Kinase assay panel (Homo sapiens, UniProt O15146); details: MUSK; 1 uM; read-out: Percent Control (%)
T2 construct: purchased DiscoverX
T2 sequence (O15146 24-869): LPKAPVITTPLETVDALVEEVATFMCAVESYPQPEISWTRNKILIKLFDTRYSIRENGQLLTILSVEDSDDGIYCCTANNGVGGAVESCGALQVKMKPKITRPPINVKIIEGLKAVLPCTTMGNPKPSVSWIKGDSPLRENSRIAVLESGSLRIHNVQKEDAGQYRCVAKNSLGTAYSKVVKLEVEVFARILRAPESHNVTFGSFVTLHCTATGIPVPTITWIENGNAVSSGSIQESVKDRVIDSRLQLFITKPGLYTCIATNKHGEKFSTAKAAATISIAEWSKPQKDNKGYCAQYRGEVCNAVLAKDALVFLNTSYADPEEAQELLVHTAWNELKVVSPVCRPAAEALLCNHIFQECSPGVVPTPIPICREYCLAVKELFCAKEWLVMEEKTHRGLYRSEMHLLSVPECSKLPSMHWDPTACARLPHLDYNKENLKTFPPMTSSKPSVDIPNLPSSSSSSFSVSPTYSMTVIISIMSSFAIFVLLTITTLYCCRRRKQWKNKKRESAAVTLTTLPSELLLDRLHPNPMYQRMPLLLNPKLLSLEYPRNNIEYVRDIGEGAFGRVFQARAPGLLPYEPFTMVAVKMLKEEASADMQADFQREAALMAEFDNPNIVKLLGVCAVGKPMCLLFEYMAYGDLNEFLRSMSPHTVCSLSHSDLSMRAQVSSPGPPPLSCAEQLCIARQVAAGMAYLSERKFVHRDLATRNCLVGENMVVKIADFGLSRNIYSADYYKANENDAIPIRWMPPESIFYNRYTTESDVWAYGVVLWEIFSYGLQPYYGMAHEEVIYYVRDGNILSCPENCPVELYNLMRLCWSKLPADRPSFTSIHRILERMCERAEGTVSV
How it was run: as §1

[3] = molecular target: T3, scanMAX Kinase assay panel (Homo sapiens, UniProt P04049); details: RAF1; 1 uM; read-out: Percent Control (%)
T3 construct: purchased DiscoverX
T3 sequence (P04049 whole entry): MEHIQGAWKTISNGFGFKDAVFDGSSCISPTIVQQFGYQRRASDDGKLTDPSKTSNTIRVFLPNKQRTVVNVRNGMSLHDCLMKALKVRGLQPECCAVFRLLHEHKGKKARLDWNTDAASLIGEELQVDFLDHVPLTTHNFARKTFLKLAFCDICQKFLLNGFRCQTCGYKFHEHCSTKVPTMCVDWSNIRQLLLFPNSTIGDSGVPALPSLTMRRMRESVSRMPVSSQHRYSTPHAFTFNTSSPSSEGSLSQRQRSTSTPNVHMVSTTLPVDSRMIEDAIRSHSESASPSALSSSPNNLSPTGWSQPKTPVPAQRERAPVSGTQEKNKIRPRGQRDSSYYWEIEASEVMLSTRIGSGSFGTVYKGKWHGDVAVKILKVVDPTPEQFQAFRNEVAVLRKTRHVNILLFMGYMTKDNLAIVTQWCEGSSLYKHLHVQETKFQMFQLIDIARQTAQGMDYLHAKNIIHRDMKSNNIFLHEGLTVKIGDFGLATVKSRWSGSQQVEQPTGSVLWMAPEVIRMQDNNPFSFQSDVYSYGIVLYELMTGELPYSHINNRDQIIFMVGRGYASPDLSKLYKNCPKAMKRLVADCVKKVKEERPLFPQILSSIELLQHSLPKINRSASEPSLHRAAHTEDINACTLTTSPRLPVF
How it was run: as §1

[4] = molecular target: T4, scanMAX Kinase assay panel (Homo sapiens, UniProt O14730); details: RIOK3; 1 uM; read-out: Percent Control (%)
T4 construct: purchased DiscoverX
T4 sequence (O14730 1-519): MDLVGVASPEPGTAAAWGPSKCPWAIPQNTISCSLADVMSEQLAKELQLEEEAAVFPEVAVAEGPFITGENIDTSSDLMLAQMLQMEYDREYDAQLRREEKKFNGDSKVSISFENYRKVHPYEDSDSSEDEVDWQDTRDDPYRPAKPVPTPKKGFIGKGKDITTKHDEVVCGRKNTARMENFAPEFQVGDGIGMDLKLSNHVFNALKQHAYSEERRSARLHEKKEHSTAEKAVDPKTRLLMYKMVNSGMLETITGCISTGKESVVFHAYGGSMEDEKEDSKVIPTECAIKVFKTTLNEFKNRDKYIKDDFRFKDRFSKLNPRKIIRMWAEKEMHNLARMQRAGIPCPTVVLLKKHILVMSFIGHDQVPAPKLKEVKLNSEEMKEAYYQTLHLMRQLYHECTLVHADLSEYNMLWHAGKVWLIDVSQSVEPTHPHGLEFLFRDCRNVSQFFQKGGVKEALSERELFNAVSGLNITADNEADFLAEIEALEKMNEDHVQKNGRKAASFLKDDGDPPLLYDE
How it was run: as §1

[5] = molecular target: T5, scanMAX Kinase assay panel (Homo sapiens, UniProt Q16512); details: PKN1; 1 uM; read-out: Percent Control (%)
T5 construct: purchased DiscoverX
T5 sequence (Q16512 whole entry): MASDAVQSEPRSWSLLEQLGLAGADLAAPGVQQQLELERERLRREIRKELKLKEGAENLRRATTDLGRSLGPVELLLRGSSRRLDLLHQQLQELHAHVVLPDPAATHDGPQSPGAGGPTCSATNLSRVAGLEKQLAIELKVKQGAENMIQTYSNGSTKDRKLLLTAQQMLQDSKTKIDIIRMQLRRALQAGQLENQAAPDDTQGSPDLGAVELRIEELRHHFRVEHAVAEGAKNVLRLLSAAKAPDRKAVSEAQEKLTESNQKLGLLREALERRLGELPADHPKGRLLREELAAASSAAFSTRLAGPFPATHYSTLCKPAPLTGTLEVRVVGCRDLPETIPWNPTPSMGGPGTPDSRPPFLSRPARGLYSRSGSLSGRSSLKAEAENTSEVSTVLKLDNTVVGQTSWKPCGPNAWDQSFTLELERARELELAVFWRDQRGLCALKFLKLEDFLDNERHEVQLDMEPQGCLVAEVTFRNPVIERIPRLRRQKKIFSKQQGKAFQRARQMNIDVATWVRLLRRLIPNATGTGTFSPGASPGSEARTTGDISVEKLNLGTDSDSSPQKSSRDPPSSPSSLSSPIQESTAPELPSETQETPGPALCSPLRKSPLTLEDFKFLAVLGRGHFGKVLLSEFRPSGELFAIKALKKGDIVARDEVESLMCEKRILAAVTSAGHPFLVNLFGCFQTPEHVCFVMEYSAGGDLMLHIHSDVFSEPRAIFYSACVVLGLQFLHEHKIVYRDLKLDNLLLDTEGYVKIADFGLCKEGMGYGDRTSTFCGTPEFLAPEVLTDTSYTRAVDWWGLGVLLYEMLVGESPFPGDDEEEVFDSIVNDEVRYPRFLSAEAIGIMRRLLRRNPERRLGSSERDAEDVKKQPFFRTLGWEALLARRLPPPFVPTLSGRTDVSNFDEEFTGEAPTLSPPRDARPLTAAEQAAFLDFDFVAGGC
How it was run: as §1

[6] = molecular target: T6, scanMAX Kinase assay panel (Homo sapiens, UniProt Q04759); details: PRKCQ; 1 uM; read-out: Percent Control (%)
T6 construct: purchased DiscoverX
T6 sequence (Q04759 whole entry): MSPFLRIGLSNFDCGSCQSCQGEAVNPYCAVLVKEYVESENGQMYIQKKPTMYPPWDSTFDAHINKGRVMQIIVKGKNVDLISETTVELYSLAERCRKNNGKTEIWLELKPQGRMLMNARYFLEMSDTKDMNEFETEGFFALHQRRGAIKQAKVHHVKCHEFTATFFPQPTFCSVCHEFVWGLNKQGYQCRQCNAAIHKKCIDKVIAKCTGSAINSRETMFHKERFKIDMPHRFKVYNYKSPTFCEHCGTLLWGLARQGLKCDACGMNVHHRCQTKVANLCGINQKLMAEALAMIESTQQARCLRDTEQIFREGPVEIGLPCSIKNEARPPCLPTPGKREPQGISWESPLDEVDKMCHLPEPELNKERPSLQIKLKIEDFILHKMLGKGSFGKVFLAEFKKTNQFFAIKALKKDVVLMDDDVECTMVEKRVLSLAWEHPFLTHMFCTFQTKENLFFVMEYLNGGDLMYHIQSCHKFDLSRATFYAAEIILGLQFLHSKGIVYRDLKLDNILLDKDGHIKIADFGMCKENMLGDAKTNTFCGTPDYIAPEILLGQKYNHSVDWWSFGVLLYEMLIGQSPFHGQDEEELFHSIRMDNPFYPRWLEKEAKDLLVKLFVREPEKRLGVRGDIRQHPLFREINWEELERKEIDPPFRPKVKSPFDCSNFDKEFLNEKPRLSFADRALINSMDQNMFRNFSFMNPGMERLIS
How it was run: as §1

[7] = molecular target: T7, scanMAX Kinase assay panel (Homo sapiens, UniProt Q6XUX3); details: RIPK5; 1 uM; read-out: Percent Control (%)
T7 construct: purchased DiscoverX
T7 sequence (Q6XUX3 1-929): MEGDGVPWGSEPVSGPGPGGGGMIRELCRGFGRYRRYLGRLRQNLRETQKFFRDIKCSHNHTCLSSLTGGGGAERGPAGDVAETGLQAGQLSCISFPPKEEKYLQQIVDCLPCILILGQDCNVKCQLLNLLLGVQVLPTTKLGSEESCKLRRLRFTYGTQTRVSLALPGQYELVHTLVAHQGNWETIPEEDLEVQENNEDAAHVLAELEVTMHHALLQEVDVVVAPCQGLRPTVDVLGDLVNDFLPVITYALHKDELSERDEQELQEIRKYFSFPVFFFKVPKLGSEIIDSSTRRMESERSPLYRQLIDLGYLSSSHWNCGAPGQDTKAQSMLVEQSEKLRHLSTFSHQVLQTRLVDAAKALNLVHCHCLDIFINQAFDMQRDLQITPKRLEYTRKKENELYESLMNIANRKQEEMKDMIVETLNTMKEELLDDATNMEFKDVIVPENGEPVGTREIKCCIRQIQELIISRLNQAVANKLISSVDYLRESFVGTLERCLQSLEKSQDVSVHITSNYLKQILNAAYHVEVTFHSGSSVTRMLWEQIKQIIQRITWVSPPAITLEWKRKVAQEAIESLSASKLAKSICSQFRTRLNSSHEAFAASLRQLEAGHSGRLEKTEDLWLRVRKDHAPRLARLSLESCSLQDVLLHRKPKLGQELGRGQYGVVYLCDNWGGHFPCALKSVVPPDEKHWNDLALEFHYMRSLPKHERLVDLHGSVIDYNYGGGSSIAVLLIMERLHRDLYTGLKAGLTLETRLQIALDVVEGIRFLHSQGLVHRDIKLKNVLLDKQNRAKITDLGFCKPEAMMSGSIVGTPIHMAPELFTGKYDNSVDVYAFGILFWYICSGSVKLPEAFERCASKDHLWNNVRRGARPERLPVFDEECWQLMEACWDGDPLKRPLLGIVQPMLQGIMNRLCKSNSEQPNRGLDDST
How it was run: as §1

Compound | remaining binding at 1 µM [1] [%] | remaining binding at 1 µM [2] [%] | remaining binding at 1 µM [3] [%] | remaining binding at 1 µM [4] [%] | remaining binding at 1 µM [5] [%] | remaining binding at 1 µM [6] [%] | remaining binding at 1 µM [7] [%]
Cc1ccc(C(=O)Nc2ccc(CN3CCN(C)CC3)c(C(F)(F)F)c2)cc1C#Cc1cnc2c(Nc3cnn(C)c3)cccn12 [Example 1, 4-methyl-3-((8-((1-methyl-1H-pyrazol-4-yl)amino)imidazo[1,2-a]pyridin-3-yl)ethynyl)-N-(4-((4-methylpiperazin-1-yl)methyl)-3-(trifluoromethyl)phenyl)benzamide] | 0 | 1 | 11 | 94 | 78 | 53 | 41
Cc1cn(-c2cc(NC(=O)c3ccc(C)c(C#Cc4cnc5c(Nc6cnn(C)c6)cccn45)c3)cc(C(F)(F)F)c2)cn1 [Example 12, 4-methyl-N-(3-(4-methyl-1H-imidazol-1-yl)-5-(trifluoromethyl)phenyl)-3-((8-((1-methyl-1H-pyrazol-4-yl)amino)imidazo[1,2-a]pyridin-3-yl)ethynyl)benzamide] | 1 | 21 | 42 | 96 | 82 | 87 | 100
Cc1ccc(NC(=O)C2(C(=O)Nc3ccc(F)cc3)CC2)cc1C#Cc1cnc2c(Nc3cnn(C(C)C)c3)cccn12 [Example 78] | 71 | 63 | 100 | 95 | 83 | 85 | 79
